In brackets after ≈: the same amount, converted by molar mass. Read-outs that look alike come from different tables or passages of the source.
How the values were obtained:
[1] = system: Proteus vulgaris A21559; assay: MIC, tube dilution, Proteus vulgaris A21559; format: cell-based; details: Proteus vulgaris, A21559, Proteus vulgaris A21559; overnight 37° C.; read-out: Minimum Inhibitory Concentration (M.I.C.)
Text: (§1) Representative compounds of the present invention were subjected to in vitro antibiotic screening against a variety of microorganisms.

[2] = system: Ent. cloacae A-9659; assay: MIC, tube dilution, Enterobacter cloacae A9659; format: cell-based; details: Enterobacter cloacae, A9659, Enterobacter cloacae A9659; overnight 37° C.; read-out: Minimum Inhibitory Concentration (M.I.C.)
Text: as §1

[3] = system: E. coli A-15119; assay: MIC, tube dilution, Escherichia coli A15119; format: cell-based; details: Escherichia coli, A15119, E. coli A15119; overnight 37° C.; read-out: Minimum Inhibitory Concentration (M.I.C.)
Text: as §1

[4] = system: Ser. marcescens A-20019; assay: MIC, tube dilution, Serratia marcescens A20019; format: cell-based; details: Serratia marcescens, A20019, Serratia marcescens A20019; overnight 37° C.; read-out: Minimum Inhibitory Concentration (M.I.C.)
Text: as §1

[5] = system: Str. pyogenes A-9604; assay: MIC, tube dilution, Streptococcus pyogenes A9604; format: cell-based; details: Streptococcus pyogenes, A9604, Str. pyogenes A9604; overnight 37° C., Nutrient Broth; read-out: Minimum Inhibitory Concentration (M.I.C.)
Text: as §1

[6] = system: Staph. aureus A-9537 and 50% serum; assay: MIC, tube dilution, Staph. aureus A9537 + 50% serum; format: cell-based, Staphylococcus aureus; details: Staphylococcus aureus, overnight 37° C., read-out: Minimum Inhibitory Concentration (M.I.C.)
Text: as §1

[7] = system: Proteus rettgeri A21203; assay: MIC, tube dilution, Proteus rettgeri A21203; format: cell-based; details: Providencia rettgeri, A21203, Proteus rettgeri A21203; overnight 37° C.; read-out: Minimum Inhibitory Concentration (M.I.C.)
Text: as §1

[8] = system: K. pneumoniae A-15130; assay: MIC, tube dilution, Klebsiella pneumoniae A15130; format: cell-based; details: Klebsiella pneumoniae, A15130, K. pneumoniae A15130; overnight 37° C.; read-out: Minimum Inhibitory Concentration (M.I.C.)
Text: as §1

[9] = system: Klebsiella species A20468; assay: MIC, tube dilution, Klebsiella species A20468; format: cell-based; details: Klebsiella species (K. pneumoniae) A20468; overnight 37° C.; read-out: Minimum Inhibitory Concentration (M.I.C.)
Text: as §1

[10] = system: E. coli A-20341-1; assay: MIC, tube dilution, Escherichia coli A20341-1; format: cell-based
Text: as §1

[11] = system: Str. pneumoniae A-9585; assay: MIC, tube dilution, Streptococcus pneumoniae A9585; format: cell-based; details: Streptococcus pneumoniae, A9585, Str. pneumoniae A9585; overnight 37° C., Nutrient Broth; read-out: Minimum Inhibitory Concentration (M.I.C.)
Text: as §1

[12] = system: Staph. aureus (Pen-Res) A-9606; assay: MIC, tube dilution, Staphylococcus aureus A9606 (Pen-Res); format: cell-based; details: Staphylococcus aureus, Staph. aureus A9606 (Pen-Res); overnight 37° C.; read-out: Minimum Inhibitory Concentration (M.I.C.)
Text: as §1

[13] = system: Pr. morganii A-15153; assay: MIC, tube dilution, Proteus morganii A15153; format: cell-based; details: Morganella morganii, A15153, Proteus morganii A15153; overnight 37° C.; read-out: Minimum Inhibitory Concentration (M.I.C.)
Text: as §1

[14] = system: Ps. aeruginosa A-9843A; assay: MIC, tube dilution, Pseudomonas aeruginosa A9843A; format: cell-based; details: Pseudomonas aeruginosa, A9843A, read-out: Minimum Inhibitory Concentration (M.I.C.), Pseudomonas aeruginosa A9843A; overnight 37° C.
Text: as §1

[15] = system: Pr. mirabilis A-9900; assay: MIC, tube dilution, Proteus mirabilis A9900; format: cell-based; details: Proteus mirabilis, A9900, Proteus mirabilis A9900; overnight 37° C.; read-out: Minimum Inhibitory Concentration (M.I.C.)
Text: as §1

[16] = system: Ent. cloacae A-9656; assay: MIC, tube dilution, Enterobacter cloacae A9656; format: cell-based; details: Enterobacter cloacae, A9656, Enterobacter cloacae A9656; overnight 37° C.; read-out: Minimum Inhibitory Concentration (M.I.C.)
Text: as §1

[17] = system: Staph. aureus A-9537; assay: MIC, tube dilution, Staphylococcus aureus A9537; format: cell-based; details: Staphylococcus aureus, A9537, Staph. aureus A9537; overnight 37° C., Nutrient Broth; read-out: Minimum Inhibitory Concentration (M.I.C.)
Text: as §1

[18] = system: Staph. aureus (Meth-Res) A-15097; assay: MIC, tube dilution, Staphylococcus aureus A15097 (Meth-Res); format: cell-based; details: Staphylococcus aureus, overnight 37° C.
Text: as §1

[19] = system: Str. faecalis A-20688; assay: MIC, tube dilution, Streptococcus faecalis A20688; format: cell-based; details: Enterococcus faecalis, A20688, Str. faecalis A20688; overnight 37° C.; read-out: Minimum Inhibitory Concentration (M.I.C.)
Text: as §1

[20] = system: S. aureus A9537; assay: In vivo protection of mice, lethal infection with S. aureus A9537; details: Staphylococcus aureus, A9537, im, IM, 2 treatments, read-out: PD50
Method: Representative compounds of the present invention were also tested in vivo in mice and their PD50 (dose of compound in mg/kg required to protect 50% of the treated mice against an otherwise lethal infection of a micro-organism) values determined with respect to the test organisms shown below.

[21] = system: Pr. vulgaris A-9716; assay: MIC, tube dilution, Proteus vulgaris / Proteus mirabilis A9716; format: cell-based, Proteus vulgaris (name changed to Proteus mirabilis); details: Proteus vulgaris, A9716, Proteus vulgaris / Proteus mirabilis A9716; overnight 37° C.; read-out: Minimum Inhibitory Concentration (M.I.C.)
Text: as §1

[22] = system: Ps. aeruginosa A-21213; assay: MIC, tube dilution, Pseudomonas aeruginosa A21213; format: cell-based; details: Pseudomonas aeruginosa A21213; overnight 37° C.; read-out: Minimum Inhibitory Concentration (M.I.C.)
Text: as §1

[23] = Escherichia coli, A203411, E. coli A20341-1; overnight 37° C.; read-out: Minimum Inhibitory Concentration (M.I.C.)
[24] = Staph. aureus A15097 (Meth-Res), read-out: Minimum Inhibitory Concentration (M.I.C.)

Row | SMILES | MIC [1] | MIC [2] | MIC [3] | MIC [4] | MIC [5] | MIC [6] | MIC [7] | MIC [8] | MIC [9] | MIC [10, 23] | MIC [11] | MIC [12] | MIC [13] | MIC [14] | MIC [15] | MIC [16] | MIC [17] | MIC [18, 24] | MIC [19] | further results
1 | C[C@@H](O)[C@H]1C(=O)N2C(C(=O)O)=C(CN)S[C@H]12 (relative stereo) [Example 62, (1'R,5R,6S and 1'S,5S,6R) 2-Aminomethyl-6-(1'-hydroxy-1'-ethyl)-penem-3-carboxylic Acid (isomer B)] | 2 µg/mL (≈ 8.19 µM) | 32 µg/mL (≈ 131 µM) | 8 µg/mL (≈ 32.8 µM) | 16 µg/mL (≈ 65.5 µM) | 0.5 µg/mL (≈ 2.05 µM) | 0.25 µg/mL | 2 µg/mL (≈ 8.19 µM) | 16 µg/mL (≈ 65.5 µM) | 32 µg/mL (≈ 131 µM) | 8 µg/mL (≈ 32.8 µM) | 0.03 µg/mL (≈ 0.123 µM) | 0.25 µg/mL (≈ 1.02 µM) | 2 µg/mL (≈ 8.19 µM) | 2 µg/mL (≈ 8.19 µM) | 2 µg/mL (≈ 8.19 µM) | 1 µg/mL (≈ 4.09 µM) | 0.03 µg/mL (≈ 0.123 µM) | 0.5 µg/mL (≈ 2.05 µM) | 32 µg/mL (≈ 131 µM) | ED50 ([20]; 8.6 × 10^5 organisms): 1 mg/kg
2 | C[C@@H](O)[C@H]1C(=O)N2C(C(=O)O)=C(CCCCN)S[C@H]12 (relative stereo) [Example 64, (1'R,5R,6S and 1'S,5S,6R)-2-(4-Aminobutyl)-6-(1'-hydroxy-ethyl)-penem-3-carboxylic Acid (isomer B)] | 2 µg/mL (≈ 6.98 µM) | 4 µg/mL (≈ 14 µM) | 2 µg/mL (≈ 6.98 µM) | 4 µg/mL (≈ 14 µM) | 0.03 µg/mL (≈ 0.105 µM) | 0.13 µg/mL | 4 µg/mL (≈ 14 µM) | 4 µg/mL (≈ 14 µM) | 4 µg/mL (≈ 14 µM) | 2 µg/mL (≈ 6.98 µM) | 0.016 µg/mL (≈ 0.0559 µM) | 0.13 µg/mL (≈ 0.454 µM) | 4 µg/mL (≈ 14 µM) | 16 µg/mL (≈ 55.9 µM) | 4 µg/mL (≈ 14 µM) | 16 µg/mL (≈ 55.9 µM) | 0.06 µg/mL (≈ 0.21 µM) | 0.25 µg/mL (≈ 0.873 µM) | 4 µg/mL (≈ 14 µM) | ED50 ([20]; 8 × 10^5 organisms): 0.04 mg/kg
3 | C[C@@H](O)[C@H]1C(=O)N2C(C(=O)O)=C(COCCN)S[C@H]12 (relative stereo) [Example 66, (1'R,5R, 6S and 1'S,5S,6R) 6-(1'-Hydroxyethyl)-2-(2-aminoethoxymethyl)penem-3-carboxylic Acid (isomer B)] |  |  |  |  |  |  |  |  |  |  |  |  |  |  |  |  |  |  |  | ED50 ([20]; 1.1 × 10^6 organisms): 0.12 mg/kg
4 | O=C(O)C1=C(C2CCC2)SC2CC(=O)N12 (stereo not shown) [Example 21, 2-Cyclobutylpenem-3-carboxylic Acid] |  | 16 µg/mL (≈ 71 µM) | 4 µg/mL (≈ 17.8 µM) | 16 µg/mL (≈ 71 µM) | 1 µg/mL (≈ 4.44 µM) | > 63 µg/mL | 4 µg/mL (≈ 17.8 µM) | 16 µg/mL (≈ 71 µM) | > 125 µg/mL |  | 0.13 µg/mL (≈ 0.577 µM) | 8 µg/mL (≈ 35.5 µM) | 16 µg/mL (≈ 71 µM) | 125 µg/mL (≈ 555 µM) | 2 µg/mL (≈ 8.88 µM) | 32 µg/mL (≈ 142 µM) | 0.13 µg/mL (≈ 0.577 µM) |  | 16 µg/mL (≈ 71 µM) | MIC ([10]; Escherichia coli, A203411; E. coli A20341-1; overnight 37° C.; read-out: Minimum Inhibitory Concentration (M.I.C.)): 125 µg/mL (≈ 555 µM); MIC [21]: 2 µg/mL (≈ 8.88 µM); MIC ([18]; read-out: Minimum Inhibitory Concentration (M.I.C.), Staph. aureus A15097 (Meth-Res)): > 125 µg/mL; MIC [22]: 125 µg/mL (≈ 555 µM)

— patent US4272437A, “Antibacterial agents, and 4-thio azetidinone intermediates” (priority 1979, dated 1981)
